Assays:
patients with AECOPD = experiment: AETHER Phase 2 trial: change in FEV1 from baseline to Day 7; assay type: in vivo, human; conditions: for FEV1 change from baseline to Day 7, sub-group with blood eosinophils <2%: on top of standard of care, compared to other sub-groups and placebo, FIGS. 10, 11
Source text: (§1) A Phase 2 trial (referred to as AETHER) was a double-blind, randomised, placebo-controlled clinical study investigating the use of BCT-197, on top of Standard of Care, for the treatment of patients with AECOPD. Standard of Care included the addition of steroids and/or antibiotics to a patient's chronic COPD medication and symptomatic bronchodilators. Following baseline assessment, 282 eligible patients were randomised to receive either two different dose regimens of BCT-197 or placebo (three doses over five days). The primary endpoint was a comparison of change in forced expiratory volume in 1 second (FEV1) from baseline to day 7 within each arm of the study.
The trial assessed adult patients≥40 years with an acute exacerbation of COPD (as defined by increase in symptoms of cough, and/or sputum and/or breathlessness that required addition of antibiotics and or systemic corticosteroids to their regular treatment).
Patients received one of two oral dosing regimens of 3-[5-amino-4-(3-cyanobenzoyl)-pyrazol-1-yl]-N-cyclopropyl-4-methylbenzamide or matching oral placebo administered according to the dosing schedules shown in Table 2.
Inclusion criteria for the study population were: • Males/females≥40 • On regular treatment for COPD (categories C and D by 2015 GOLD guidelines) • Presence of an active exacerbation of the ongoing COPD requiring hospitalisation for treatment: • At least one moderate or severe COPD exacerbation in the preceding 12 months • Smoking history of at least 10 pack years • FEV1<65% of the predicted normal value […]
Efficacy of treatment was measured by the primary endpoint of change in FEV1 from baseline (before treatment) to Day 7. Patients with COPD and low eosinophils (determined by blood percentages or absolute counts) are considered to be poorly responsive to treatment of acute exacerbations using known treatments.

fibrinogen = experiment: AETHER Phase 2 trial: fibrinogen blood concentration; assay type: in vivo, human; conditions: high and low dose over 5 days; to Day 14; including <2% eosinophils; maximal at Day 7; FIG. 13
Source text: as §1
(§2) A further exploratory outcome included over the treatment period to Day 5 and BCT197 systemic exposure (to Day 14) were the inflammatory biomarkers high sensitivity C-Reactive Protein (hsCRP) and fibrinogen measured in patient blood. […] This was maximal at Day 7 (FIGS. 12 and 13) coincident with the highest improvement in FEV1 (FIG. 11) in response to BCT197 in the same patient population with <2% eosinophils.

[1] = system: acute exacerbations of COPD; experiment: AETHER Phase 2 trial: occurrence of new acute exacerbations of COPD / re-hospitalisation out to 6 months; assay type: in vivo, human
Source text: A Phase 2 trial (referred to as […]) was a double-blind, randomised, placebo-controlled clinical study investigating the use of BCT-197, on top of Standard of Care, for the treatment of patients with AECOPD. Standard of Care included the addition of steroids and/or antibiotics to a patient's chronic COPD medication and symptomatic bronchodilators. Following baseline assessment, 282 eligible patients were randomised to receive either one of two different dose regimens of BCT-197 or placebo (three doses over five days). The trial assessed adult patients ≥40 years with an acute exacerbation of COPD (as defined by increase in symptoms of cough, and/or sputum and/or breathlessness that required addition of antibiotics and or systemic corticosteroids to their regular treatment). The dosing regimen of 3-[5-amino-4-(3-cyanobenzoyl)-pyrazol-1-yl]-N-cyclopropyl-4-methylbenzamide or matching oral placebo administered are shown in Table 1. [table] BCT197 or placebo was added on top of the standard of care for the exacerbation. Exploratory long term outcomes after the acute treatment were included out to 6 months. […] Inclusion criteria for the study population were: • Males/females≥40 • On regular treatment for COPD (categories C and D by 2015 GOLD guidelines) • Presence of an active exacerbation of the ongoing COPD requiring hospitalisation for treatment: • At least one moderate or severe COPD exacerbation in the preceding 12 months • Smoking history of at least 10 pack years • FEV1<65% of the predicted normal value Exclusion criteria for the study population were: • Current diagnosis of asthma • Treatment with systemic corticosteroids or antibiotics in the prior 4 weeks. • Requiring intensive care unit treatment • Clinically significant cardiovascular condition of clinically significant ECG abnormality • Concurrent pneumonia, pulmonary embolus or pneumothorax

[2] = system: high sensitivity C-Reactive Protein (hsCRP); experiment: AETHER Phase 2 trial: hsCRP blood concentration; assay type: in vivo, human
Source text: as §1, with “either one of” for “either”, “days).” for “days). The primary endpoint was a comparison of change in forced expiratory volume in 1 second (FEV1) from baseline to day 7 within each arm of the study.”
Inflammatory biomarkers are related to disease outcomes (Barnes and Celli, Eur Respir J, 2009, 33, pp 1165-1185; Bourdin et al., Eur Respir Rev, 2009, 18, pp 198-212) and are central to the proposed mechanism of action for BCT197. A further exploratory outcome was included out to 6 months, namely the inflammatory biomarker high sensitivity C-Reactive Protein (hsCRP) measured in patients. […] This is supportive that treatment in accordance with the invention leads to a reduction in re-hospitalisations and non-hospitalised exacerbations over this period through long term reduction in inflammation.
After the acute treatment period, the hsCRP remains lower in those who had received BCT197 compared to placebo to Day 180 (p value<0.05) without additional dosing of BCT197, supporting a prolonged pharmacology effect on inflammation by BCT197.
as §2

AECOPD = conditions: single oral dose; cited from earlier work
[3] = system: lymphocytes and neutrophils; experiment: AETHER Phase 2 trial: % lymphocytes and neutrophils in blood; assay type: in vivo, human
Source text: as §1, with “either one of” for “either”, “days).” for “days). The primary endpoint was a comparison of change in forced expiratory volume in 1 second (FEV1) from baseline to day 7 within each arm of the study.”
Systemic markers of adaptive and innate immunity are predictive of disease progression in COPD. […] Consequently, the effect of BCT197 to rebalance these biomarkers to a healthier phenotype, including beyond the period of systemic drug exposure, supports the potential benefit of the dosing regimens of the present invention.

For `Cc1ccc(C(=O)NC2CC2)cc1-n1ncc(C(=O)c2cccc(C#N)c2)c1N` [BCT197, 3-[5-amino-4-(3-cyanobenzoyl)-pyrazol-1-yl]-N-cyclopropyl-4-methylbenzamide], the “FEV1: relative difference to standard of care, >2% eosinophil sub-population” value (patients with AECOPD; FIG. 10 right hand side) was “much less than in the low eosinophil group”, the “FEV1 change from baseline to Day 7, sub-group with blood eosinophils <2%” value (patients with AECOPD) was “substantial and consistent improvement in FEV1” and the “FEV1 change from baseline to Day 7, sub-group with blood eosinophils <2%” value (patients with AECOPD; listed as compound A) was “significant improvement”. For the same molecule, the “fibrinogen from baseline versus placebo” value (fibrinogen) was “dose-dependent reduction”, the “re-hospitalisation for COPD” value ([1]; both high and low dose over 5 days, subsequent 6 months, high eosinophil sub group (Eos>2%), vs placebo, FIG. 3) was “able to reduce re-hospitalisation for COPD” and the “reduction of occurrence of new exacerbations that require hospitalisation” value ([1]; high dose (75/40/40 mg, days 1, 3, 5) on top of standard of care, subsequent 6 months, vs placebo, FIG. 1) was 40-60%. For the same molecule, the “period of greatest effect on new exacerbations that require hospitalisation” value ([1]; high dose, based on numerical difference to placebo and statistical significance) was “between 3 and 4 months”, the “recurrent exacerbations that were not hospitalised” value ([1]; short course of high dose, FIG. 2) was “reductions” and the “hsCRP for the subsequent 6 months versus placebo” value ([2]; both high and low dose over 5 days, both high and low eosinophil sub group, FIGS. 4 and 5) was “sustained and durable reduction in hsCRP”. For the same molecule, the “hsCRP from baseline versus placebo” value ([2]; high and low dose over 5 days, to Day 14, including <2% eosinophils, maximal at Day 7, FIG. 12) was “dose-dependent reduction”, the “decrease in hsCRP to day 7 during acute treatment compared to placebo” value ([2]; high dose, combined Eos>2% and <2%, p<0.05 at Day 3, 7 and 10, FIG. 6) was “significantly greater” and the “hsCRP after the acute treatment period compared to placebo” value ([2]; high dose, to Day 180 without additional dosing, p value<0.05, FIG. 6) was “remains lower”. The “recovery of AECOPD to the stable disease state” value (AECOPD) was “accelerates the recovery to the stable disease state”, the “change from baseline in % neutrophils during acute treatment” value ([3]; high and low dose vs placebo, greater than placebo with dose-dependent effect, FIG. 8) was “rapid decrease in % neutrophils” and the “change from baseline in % lymphocytes over the acute treatment period” value ([3]; high and low dose vs placebo, to Day 14, FIG. 7) was “dose-dependent increase in lymphocytes”. For the same molecule, the “reduction in % neutrophils compared to placebo to Day 56” value ([3]; without additional dosing, FIG. 9) was “remains greater”.
